Laboratory results as given in ChEMBL document CHEMBL1129561 (J Med Chem, 1996).

How the values were obtained:
Progesterone receptor [1] = target: T1, Progesterone receptor (Homo sapiens, UniProt P06401)
T1 sequence (P06401 whole entry): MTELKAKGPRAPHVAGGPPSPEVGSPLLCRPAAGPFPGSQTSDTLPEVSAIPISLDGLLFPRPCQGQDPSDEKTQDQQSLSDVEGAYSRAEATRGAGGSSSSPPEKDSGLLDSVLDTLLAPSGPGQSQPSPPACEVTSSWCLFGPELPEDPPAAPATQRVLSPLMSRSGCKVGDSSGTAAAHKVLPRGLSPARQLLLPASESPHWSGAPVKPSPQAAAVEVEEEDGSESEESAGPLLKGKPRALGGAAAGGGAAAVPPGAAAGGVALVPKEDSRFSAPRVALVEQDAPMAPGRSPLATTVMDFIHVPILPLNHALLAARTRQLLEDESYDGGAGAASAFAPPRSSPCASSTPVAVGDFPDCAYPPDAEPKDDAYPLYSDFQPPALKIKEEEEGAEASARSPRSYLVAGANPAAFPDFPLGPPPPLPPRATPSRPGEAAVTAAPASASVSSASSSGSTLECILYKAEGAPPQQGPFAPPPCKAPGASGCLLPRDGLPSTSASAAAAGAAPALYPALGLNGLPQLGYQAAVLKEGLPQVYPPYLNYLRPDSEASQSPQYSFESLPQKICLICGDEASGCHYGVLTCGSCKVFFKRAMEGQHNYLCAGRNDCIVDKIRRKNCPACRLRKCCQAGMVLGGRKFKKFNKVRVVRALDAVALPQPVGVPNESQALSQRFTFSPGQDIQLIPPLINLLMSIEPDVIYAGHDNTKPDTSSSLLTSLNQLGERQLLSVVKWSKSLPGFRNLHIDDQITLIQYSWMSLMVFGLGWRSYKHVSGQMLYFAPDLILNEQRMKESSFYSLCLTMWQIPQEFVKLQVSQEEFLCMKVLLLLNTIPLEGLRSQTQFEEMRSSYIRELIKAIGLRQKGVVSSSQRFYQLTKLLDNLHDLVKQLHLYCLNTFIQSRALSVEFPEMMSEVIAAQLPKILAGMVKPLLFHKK

Glucocorticoid receptor [2] = target: T2, Glucocorticoid receptor (Homo sapiens, UniProt P04150)
T2 sequence (P04150 whole entry): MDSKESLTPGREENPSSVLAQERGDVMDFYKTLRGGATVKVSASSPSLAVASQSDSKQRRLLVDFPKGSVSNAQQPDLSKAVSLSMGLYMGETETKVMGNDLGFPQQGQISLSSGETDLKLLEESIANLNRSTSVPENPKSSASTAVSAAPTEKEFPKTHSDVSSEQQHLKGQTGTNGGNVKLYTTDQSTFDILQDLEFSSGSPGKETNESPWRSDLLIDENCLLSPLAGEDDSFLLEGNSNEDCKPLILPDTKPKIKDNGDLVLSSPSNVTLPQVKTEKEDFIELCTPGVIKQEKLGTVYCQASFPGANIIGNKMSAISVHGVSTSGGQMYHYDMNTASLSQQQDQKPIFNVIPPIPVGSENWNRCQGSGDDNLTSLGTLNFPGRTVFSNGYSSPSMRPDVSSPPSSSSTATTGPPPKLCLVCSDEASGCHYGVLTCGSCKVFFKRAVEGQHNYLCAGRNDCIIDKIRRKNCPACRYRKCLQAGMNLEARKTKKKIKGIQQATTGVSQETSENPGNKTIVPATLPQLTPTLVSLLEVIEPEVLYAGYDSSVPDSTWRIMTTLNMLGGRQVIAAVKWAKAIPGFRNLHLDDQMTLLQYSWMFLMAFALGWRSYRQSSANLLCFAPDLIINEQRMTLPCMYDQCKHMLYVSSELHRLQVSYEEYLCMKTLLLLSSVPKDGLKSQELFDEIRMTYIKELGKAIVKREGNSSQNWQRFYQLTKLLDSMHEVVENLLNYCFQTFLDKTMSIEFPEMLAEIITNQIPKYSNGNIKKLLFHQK
Description: Binding affinity was determined for human glucocorticoid receptor(hGR).

Progesterone receptor [3] = target: T1, Progesterone receptor; remark: listed apart in the source
Progesterone receptor [4] = target: T1, Progesterone receptor; remark: listed apart in the source
Progesterone receptor [5] = target: T1, Progesterone receptor; remark: listed apart in the source
[6] = target: T3, Progesterone receptor (Homo sapiens) (UniProt P06401); details: CV-1
T3 sequence (whole entry): T1 sequence (P06401 whole entry)

Androgen receptor [7] = target: T4, Androgen receptor (Homo sapiens, UniProt P10275)
T4 sequence (P10275 whole entry): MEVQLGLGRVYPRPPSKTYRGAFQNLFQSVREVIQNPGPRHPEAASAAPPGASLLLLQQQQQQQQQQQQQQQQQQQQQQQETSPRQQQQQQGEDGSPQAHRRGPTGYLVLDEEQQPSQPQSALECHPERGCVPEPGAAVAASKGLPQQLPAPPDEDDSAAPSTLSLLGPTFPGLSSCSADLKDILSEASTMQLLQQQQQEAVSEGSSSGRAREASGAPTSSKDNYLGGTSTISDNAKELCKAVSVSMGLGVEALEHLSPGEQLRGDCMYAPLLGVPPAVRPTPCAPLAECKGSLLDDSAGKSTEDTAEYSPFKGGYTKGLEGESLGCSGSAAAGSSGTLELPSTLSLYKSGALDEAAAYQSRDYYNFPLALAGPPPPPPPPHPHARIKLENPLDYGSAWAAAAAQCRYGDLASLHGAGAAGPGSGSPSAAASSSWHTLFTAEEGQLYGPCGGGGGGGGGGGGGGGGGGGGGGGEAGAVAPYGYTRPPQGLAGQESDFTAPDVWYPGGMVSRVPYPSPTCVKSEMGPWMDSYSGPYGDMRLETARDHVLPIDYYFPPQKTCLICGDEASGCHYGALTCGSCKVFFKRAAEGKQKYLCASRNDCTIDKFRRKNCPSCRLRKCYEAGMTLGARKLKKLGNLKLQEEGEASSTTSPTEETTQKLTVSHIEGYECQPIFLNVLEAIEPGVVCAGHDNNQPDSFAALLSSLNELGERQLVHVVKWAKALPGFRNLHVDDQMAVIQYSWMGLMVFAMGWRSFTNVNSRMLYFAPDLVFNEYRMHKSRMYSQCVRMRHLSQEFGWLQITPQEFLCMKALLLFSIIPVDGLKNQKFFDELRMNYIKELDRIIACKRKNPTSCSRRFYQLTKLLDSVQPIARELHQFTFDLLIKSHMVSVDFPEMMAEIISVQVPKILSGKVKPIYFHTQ
Description: Binding affinity determined against human Androgen receptor

[8] = target: T3, Progesterone receptor (Homo sapiens); details: CV-1; remark: listed apart in the source
Progesterone receptor [9] = target: T1, Progesterone receptor; remark: listed apart in the source
Glucocorticoid receptor [10] = target: T2, Glucocorticoid receptor; experiment: Inhibitory activity against human glucocorticoid receptor (hGR)
Androgen receptor [11] = target: T4, Androgen receptor; remark: listed apart in the source
Description: Inhibitory activity against human Androgen receptor

Estrogen receptor = Estrogen receptor (Homo sapiens, UniProt Q92731+P03372)
Description: Inhibitory activity against human estrogen receptor

Row | IC50 (Progesterone receptor [1]) | Ki (Glucocorticoid receptor [2]) | IC50 (Progesterone receptor [3]) | EC50 (Progesterone receptor [4]) | Ki (Progesterone receptor [5]) | Max inhibition [6] | Ki (Androgen receptor [7]) | Max inhibition [8] | SMILES | EC50 (Progesterone receptor [9]) | IC50 (Glucocorticoid receptor [10]) | IC50 (Androgen receptor [11]) | IC50 (Estrogen receptor)
1 |  | 1260 nM |  |  |  | 37% | 1450 nM |  | C=C1C=C(C)CC(C)(C)C1Cc1cc(OC)c(Br)cc1O (configuration not stated) |  |  |  | 
2 |  | 8220 nM |  |  |  | 44% | > 10000 nM |  | C=C1C=C(C)CC(C)(C)C1Sc1ccc([N+](=O)[O-])cc1 (configuration not stated) |  |  |  | 
3 |  | 10000 nM (not active) | 2440 nM |  | > 10000 nM | 93% | 10000 nM (not active) |  | CCOC1=CC(=O)C(Cc2ccc([N+](=O)[O-])cc2)C(C)(C)C1 (configuration not stated) |  |  |  | 
4 |  | 8510 nM |  |  |  | 87% | 6450 nM |  | C=C1C=C(C)CC(C)(C)C1(O)Cc1ccc([N+](=O)[O-])cc1 (configuration not stated) |  |  |  | 
5 | 770 nM | 2200 nM | 710 nM | 1460 nM | 59.6 nM | 42% | 1940 nM |  | C=C1C=C(C)CC(C)(C)C1Cc1cc(OC)c(Br)cc1OC(C)=O (configuration not stated) |  |  |  | 
6 | 775 nM | 8360 nM | 1950 nM |  | 88 nM | 72% | > 10000 nM |  | C=C1C=C(C)CC(C)(C)C1Cc1ccc2nonc2c1 (configuration not stated) |  |  |  | 
7 | 510 nM | 6810 nM | 1800 nM |  | 28.8 nM | 85% | 2700 nM |  | C=C1C=C(C)CC(C)(C)C1Cc1ccc([N+](=O)[O-])c(C)c1 (configuration not stated) |  |  |  | 

Continued, compound first:

Row | SMILES | IC50 (Progesterone receptor [1]) | Ki (Glucocorticoid receptor [2]) | IC50 (Progesterone receptor [3]) | EC50 (Progesterone receptor [4]) | Ki (Progesterone receptor [5]) | Max inhibition [6] | Ki (Androgen receptor [7]) | Max inhibition [8] | EC50 (Progesterone receptor [9]) | IC50 (Glucocorticoid receptor [10]) | IC50 (Androgen receptor [11]) | IC50 (Estrogen receptor)
8 | C=C1CCCC(C)(C)C1Cc1cc(OC)c(Br)cc1O (configuration not stated) | 163 nM | 2210 nM | 405 nM | 4020 nM | 77 nM | 55% |  |  |  |  |  | 
9 | C=C1C[C@H](CO)CC(C)(C)[C@@H]1Cc1cc(OC)c(Br)cc1O | 2000 nM | 6390 nM | 3300 nM |  | 3250 nM | 87% | 6810 nM | 87% |  |  |  | 
10 | C=C1CCC[C@H](C)[C@H]1Cc1cc(OC)c(Br)cc1O | 300 nM | 3700 nM | 1050 nM |  | 71 nM | 93% | 1640 nM |  |  |  |  | 
11 | C=C1C[C@H](C)CC(C)(C)[C@@H]1Cc1cc(OC)c(Br)cc1O | > 10000 nM | 1040 nM |  |  | 22 nM | < 20% | 696 nM |  | 458 nM |  |  | 
12 | C=C1C[C@H](C)C[C@@H](C)[C@@H]1Cc1cc(OC)c(Br)cc1O | 350 nM | 1660 nM | 985 nM |  | 84 nM | 63% | 1140 nM |  |  |  |  | 
13 | C=C1C=C(C)C[C@@H](C)[C@@H]1Cc1cc(OC)c(Br)cc1OC(C)=O | 147 nM | 2380 nM | 350 nM | 3010 nM | 21 nM | 52% | 1500 nM |  |  |  |  | 
14 | C=C1C=C(C)C(Cc2cc(OC)c(Br)cc2O)C(C)(C)C1 (configuration not stated) |  | 2670 nM |  |  |  | 66% | 1590 nM |  |  |  |  | 
15 | C=C1[C@@H](Cc2cc(OC)c(Br)cc2O)C(C)(C)CC[C@@]1(C)O | 430 nM | > 10000 nM | 2000 nM |  | 275 nM | 78% | 6660 nM |  |  |  |  | 
16 | C=C1CC[C@@H](Br)C(C)(C)[C@@H]1Cc1cc(OC)c(Br)cc1O | 3500 nM | 2470 nM |  |  | 343 nM | < 20% |  |  | 35 nM | > 10000 nM | 238 nM | > 10000 nM
17 | C=C1CCC[C@@H](C)[C@@H]1Cc1cc(OC)c(Br)cc1O | 200 nM | 2290 nM | 320 nM | 3010 nM | 69 nM | 62% | 570 nM |  |  |  |  | 
18 | C=C1CCCC(C)(C)[C@@H]1Cc1cc(OC)c(Br)cc1O | 290 nM | 1780 nM | 597 nM | 3260 nM | 34 nM | 45% |  |  |  |  |  | 
19 | C=C1[C@H](O)CCC(C)(C)[C@@H]1Cc1cc(OC)c(Br)cc1O | 1700 nM | > 10000 nM | 3400 nM |  | 10000 nM (not active) | 73% | 10000 nM (not active) |  |  |  |  | 
20 | C=C1C(C)=CCC(C)(C)[C@@H]1Cc1cc(OC)c(Br)cc1OC(C)=O | 210 nM | 4110 nM | 660 nM |  | 455 nM | 83% | 6390 nM |  |  |  |  | 
21 | COc1cc(CC2C(C)(C)CC(C)=CC23CC3)c(OC(C)=O)cc1Br (configuration not stated) | 440 nM | 2570 nM | 160 nM | 2120 nM | 98 nM | 26% | 3010 nM |  |  |  |  | 
22 | C=C1CCC(C)(C)C1Cc1cc(OC)c(Br)cc1O (configuration not stated) | 250 nM | 4530 nM | 1200 nM |  | 441 nM | 98% | 1920 nM |  |  |  |  | 
23 | C=C1C=CCC(C)(C)C1Cc1cc(OC)c(Br)cc1O (configuration not stated) | 280 nM | 2780 nM | 783 nM |  | 156 nM | 71% | 1520 nM |  |  |  |  | 
